# Measured values reported in patent US20190100549A1, “FLAVONOIDE-TYPE COMPOUNDS BEARING AN O-RHAMNOSYL RESIDUE” (Universitaet Hamburg, priority 2016, published 2019).
# “And” between values parts separate entries of the source, which are not always exact repeats. Equal entries are not always repeated.
# Assays:
# procollagen I = test: Procollagen I synthesis in NHDF (ELISA); format: cell-based, human; conditions: 100 μM, 72 hours
# Method: (§1) Tests were performed with normal human dermal fibroblast cultures at the 8th passage. Cells were grown in DMEM supplemented with glutamine at 2 mM, penicillin at 50 U/mL and streptomycin (50 μg/mL) and 10% of fetal calf serum (FCS) at 37° C. in a 5% CO2 atmosphere.
# (§2) Fibroblasts were cultured for 24 hours before the cells were incubated with the test compounds for further 72 hours. After the incubation the culture supernatants were collected in order to measure the released quantities of procollagen I, VEGF, and fibronectin by means of ELISA. Reference test compounds were vitamin C (procollagen I), PMA (VEGF), and TGF-β (fibronectin).
# TNF-α = TNF-α release in stimulated NHEK (ELISA); format: cell-based, human; conditions: poly(I:C)
# Method: (§3) NHEK were pre-incubated for 24 h with the test compounds. The medium was replaced with the NHEK culture medium containing the inflammatory inducers (PMA or Poly I:C) and incubated for another 24 hours. Positive and negative controls ran in parallel. At the endpoint the culture supernatants were quantified of secreted IL-8, PGE2 and TNF-α by means of ELISA.
# VEGF = VEGF release in NHDF (ELISA); format: cell-based, human; conditions: 100 μM, 72 hours
# Method: as §1, §2
# fibronectin = test: Fibronectin synthesis in NHDF (ELISA); format: cell-based, human; conditions: 100 μM, 72 hours
# Method: as §1, §2
# HaCaT cells = test: Glucose uptake (2-NBDG) in HaCaT keratinocytes; format: cell-based; parameters: key to Measure 1 / Measure 2 / Measure 3 / Mean: total green object integrated intensity, GCU×μm2×Well; conditions: +2NBDG 50 μM, 24 h; for Measure 1 / Measure 2 / Measure 3: HaCaT cells, fluorescence; for RFU specific: mean minus control; for Mean: mean of triplicate measurements; for % Glucose uptake: Rosiglitazone 80 μM = 100%
# Method: HaCaT cells (5×10^4) were seeded in 96-well black plates and incubated for 24 h. Then, medium was removed and the cells cultivated in OptiMEM, labeled with 50 μM 2-NBDG (2-[N-(7-nitrobenz-2-oxa-1,3-diazol-4-yl) amino]-2-deoxy-D-glucose and treated with the test substances or the positive control, Rosiglitazone, for 24 h. Medium was removed and the wells were carefully washed with PBS and incubated in PBS (100l/well). Finally the fluorescence was measured using the Incucyte FLR software, the data were analyzed by the total green object integrated intensity (GCU×μm2×Well) of the imaging system IncuCyte HD (Essen BioScience). The fluorescence of Rosiglitazone is taken as 100% of glucose uptake, and the glucose uptake was calculated as (% Glucose uptake)=100(T−B)/(R−B), where T (treated) is the fluorescence of test substance-treated cells, B (Basal) is the fluorescence of 2-NBDG cells and […] is the fluorescence of cells treated with Rosiglitazone.
# NF-κB = NF-κB activity in NIH3T3-KBF-Luc cells stimulated with TNFα (luciferase); format: cell-based; conditions: for % Activation: TNFα alone = 100
# Method: NIH3T3-KBF-Luc cells were stably transfected with the KBF-Luc plasmid (Sancho (2003) Mol Pharmacol 63:429-438), which contains three copies of NF-κB binding site (from major histocompatibility complex promoter), fused to a minimal simian virus 40 promoter driving the luciferase gene. Cells (1×10^4 for NIH3T3-KBF-Luc) were seeded the day before the assay on 96-well plate. Then the cells were treated with the test substances for 15 min and then stimulated with 30 ng/ml of TNFα. After 6 h, the cells were washed twice with PBS and lysed in 50 μl lysis buffer containing 25 mM Tris-phosphate (pH 7.8), 8 mM MgCl2, 1 mM DTT, 1% Triton X-100, and 7% glycerol during 15 min at RT in a horizontal shaker. Luciferase activity was measured using a GloMax 96 microplate luminometer (Promega) following the instructions of the luciferase assay kit (Promega, Madison, Wis., USA). […] The experiments for each concentration of the test items were done in triplicate wells.
# [1] = tested on: hydrogen peroxide (DHR) in NHEK cells; test: Protection against UV-induced H2O2 stress in NHEK (DHR probe, flow cytometry); format: cell-based, human
# Method: (§4) Pre-incubated NHEK were incubated with the test compound for 24 h. Then the specific fluorescence probe for the measurement of hydrogen peroxide (DHR) or lipid peroxides (C11-fluor) was added and incubated for 45 min. Irradiation occurred with in H2O2 determination UVB at 180 mJ/cm^2 (+UVA at 2839 mJ/cm^2) or UVB at 240 mJ/cm^2 (+UVA at 3538 mJ/cm^2) in lipid peroxide, respectively, using a SOL500 Sun Simulator lamp. After irradiation the cells were post-incubated for 30 min before flow-cytometry analysis.
# PGE2 = PGE2 release in stimulated NHEK (ELISA); format: cell-based, human; conditions: PMA 1 μg/ml, 100 μM
# Method: as §3
# [2] = tested on: lipid peroxides (C11-fluor) in NHEK cells; test: Protection against UV-induced lipid peroxide in NHEK (C11-fluor probe, flow cytometry); format: cell-based, human; conditions: 100 μM, 240 mJ/cm^2 UVB (3538 mJ/cm^2 UVA)
# Method: as §4
# IL-8 = IL-8 release in stimulated NHEK (ELISA); format: cell-based, human; conditions: for inhibition at 100 µM: Homo sapiens, NHEK; for Cytokine [pg/mL] IL-8 Mean / IL-8 % stim. control / Cytokine [pg/mL] IL-8: 100 μM; for Cytokine [pg/mL] IL-8: single values
# Method: as §3
# [3] = 100 μM, 180 mJ/cm^2 UVB (2839 mJ/cm^2 UVA)
structure (smiles),measurement,setting,value
"COc1ccc(C2CC(=O)c3c(cc(O)cc3O[C@@H]3O[C@@H](C)[C@H](O)[C@@H](O)[C@H]3O)O2)cc1O (stereo partly drawn) [HESR1, Hesperetin-5-O-α-L-rhamnoside]",Procollagen I % Control,procollagen I,118%
same,Procollagen I Mean,procollagen I,1968 ng/mL
same,Procollagen I,procollagen I; single values,1929 ng/mL and 2007 ng/mL
same,inhibition at 100 µM,"TNF-α; Homo sapiens, NHEK, read-out: TNFα Inhibition %",26%
same,Cytokine [pg/mL] TNFα Mean,TNF-α; 100 μM,423 pg/mL
same,TNFα % stim. control,TNF-α; 100 μM,75%
same,Cytokine [pg/mL] TNFα,"TNF-α; 100 μM, single values",416 pg/mL and 429 pg/mL
same,Mean VEGF,VEGF,73 pg/mL
same,VEGF % Control,VEGF,101%
same,VEGF % Stimulation,VEGF,1%
same,VEGF,VEGF; single values,70 pg/mL and 76 pg/mL
same,Fibronectin % Control,fibronectin,96%
same,Fibronectin % Stimulation,fibronectin,−4%
same,Fibronectin Mean,fibronectin,5853 ng/mL
same,Fibronectin,fibronectin; single values,5843 ng/mL and 5864 ng/mL
same,Measure 1,HaCaT cells; 25 μM test substance,756943
same,Measure 2,HaCaT cells; 25 μM test substance,549324
same,Measure 3,HaCaT cells; 25 μM test substance,384251
same,RFU specific,HaCaT cells; 25 μM test substance,557192 RFU
same,Mean,HaCaT cells; 25 μM test substance,563506
same,% Glucose uptake,HaCaT cells; 25 μM test substance,64.1%
same,Measure 1,HaCaT cells; 50 μM test substance,501977
same,Measure 2,HaCaT cells; 50 μM test substance,642949
same,Measure 3,HaCaT cells; 50 μM test substance,529620
same,RFU specific,HaCaT cells; 50 μM test substance,551868 RFU
same,Mean,HaCaT cells; 50 μM test substance,558182
same,% Glucose uptake,HaCaT cells; 50 μM test substance,63.5%
same,RLU 1,NF-κB; 10 μM + 30 ng/ml TNFα,186120 RLU
same,RLU 2,NF-κB; 10 μM + 30 ng/ml TNFα,181040 RLU
same,RLU 3,NF-κB; 10 μM + 30 ng/ml TNFα,182280 RLU
same,RLU MEAN,NF-κB; 10 μM + 30 ng/ml TNFα,183147 RLU
same,RLU specific,NF-κB; 10 μM + 30 ng/ml TNFα,145883 RLU
same,% Activation,NF-κB; 10 μM + 30 ng/ml TNFα,178.4%
same,RLU 1,NF-κB; 25 μM + 30 ng/ml TNFα,218940 RLU
same,RLU 2,NF-κB; 25 μM + 30 ng/ml TNFα,216580 RLU
same,RLU 3,NF-κB; 25 μM + 30 ng/ml TNFα,213320 RLU
same,RLU MEAN,NF-κB; 25 μM + 30 ng/ml TNFα,216280 RLU
same,RLU specific,NF-κB; 25 μM + 30 ng/ml TNFα,179017 RLU
same,% Activation,NF-κB; 25 μM + 30 ng/ml TNFα,218.9%
same,anti-oxidative function on mitochondrially produced hydrogen peroxids species (in words),[1],anti-oxidative function
same,H2O2 % irradiated control,[1]; [3],62%
same,H2O2 (AU) Mean,[1]; [3],1152 AU
same,H2O2 Protection %,[1]; [3],45%
same,H2O2 (AU) (DHR GMFI),"[1]; 100 μM, 180 mJ/cm^2 UVB (2839 mJ/cm^2 UVA), single values",1046 AU and 1258 AU
same,inhibition at 100 µM,"PGE2; Homo sapiens, NHEK",74%
same,Cytokine [pg/mL] PGE2 Mean,PGE2,507 pg/mL
same,PGE2 % stim. control,PGE2,32%
same,Cytokine [pg/mL] PGE2,PGE2; single values,582 pg/mL and 431 pg/mL
same,C11-fluor(AU) Mean (1/GMFI),[2],6.4E−04 AU
same,lipid peroxide % Irradiated control,[2],99%
same,lipid peroxide Protection %,[2],1%
same,C11-fluor(AU) 1/GMFI,[2]; single values,6.0E−04 AU and 6.9E−04 AU
same,C11-fluor(AU) GMFI,[2]; single values,1671 AU and 1455 AU
same,inhibition at 100 µM,IL-8; PMA,34%
same,inhibition at 100 µM,IL-8; poly(I:C),24%
same,Cytokine [pg/mL] IL-8 Mean,IL-8; PMA,2843 pg/mL
same,IL-8 % stim. control,IL-8; PMA,98%
same,Cytokine [pg/mL] IL-8,IL-8; PMA,3242 pg/mL and 2445 pg/mL
same,Cytokine [pg/mL] IL-8 Mean,IL-8; poly(I:C),2793 pg/mL
same,IL-8 % stim. control,IL-8; poly(I:C),76%
same,Cytokine [pg/mL] IL-8,IL-8; poly(I:C),2617 pg/mL and 2970 pg/mL
